The target of the assay is T1, hα7-wt nAChR (Homo sapiens, UniProt P36544).
T1 construct: expressed in transfected cells
Nature of the assay: Ca2+ flux imaging (FDSS) (Protocol B), potentiation of the choline response. The class given is cell-based. To be noted: Ca2+ assay as described in D.1; for EC50: "<5" = activity did not reach a top plateau at maximal concentration; for Emax / Emax at 30 µM: read-out: % Efficacy. As for the experimental part:
Ca^2+ Flux Imaging (FDSS) (Protocol B)
• Hanks buffered saline solution (HBSS, Invitrogen, Belgium), supplemented with 10 mM HEPES (Invitrogen, Belgium), CaCl2 to a final concentration of 5 mM, 0.1% Bovine serum albumin (Sigma-Aldrich NV, Belgium). b) Calcium-Sensitive Dye—Fluo-4AM • Fluo-4AM (Molecular Probes, USA) was dissolved in DMSO containing 10% Pluronic acid (Molecular Probes, USA) to give a stock solution which was diluted in assay buffer supplemented with 5 mM probenicid (Sigma, Aldrich NV, Belgium) to give a final concentration of 2 μM. c) 384-Well Plates • Black 384 well plate black/clear plates, PDL pre-coated (Corning, Incorporated, USA) d) Calcium Flux Measurement • A Functional drug screening system (FDSS, Hamamatsu) was used to measure intracellular free-calcium flux signals. Method
Monolayers of hα7-wt nAChR-expressing cells were grown in multi-well plates, in particular black-sided, transparent bottomed 384 well plates coated with poly-D-lysine for 24 hours prior to loading with a fluorescent calcium indicator, in a particular embodiment loading with fluo-4AM for up to 120 minutes.
PAM activity was detected in real time by applying the compounds to be tested to the loaded cells along with a α7 nicotinic receptor agonist during constant monitoring of cellular fluorescence in a FDSS. Compounds giving peak fluorescent responses greater than the response due to agonist alone, were considered to be α7 nAChR PAM's. In a particular embodiment, the α7 nicotinic receptor agonist was choline, a more particular embodiment choline applied at a sub-maximal concentration of 100 μM. In a further setting of the present invention the compounds to be tested were applied prior to the α7 nicotinic receptor agonist, in a particular embodiment up to 10 minutes prior to the agonist.
A control response to choline was calculated on each plate from the difference in peak in fluorescence in wells receiving either choline or assay buffer alone. Compounds of the present invention were tested at a concentration range from 0.01 μM to 30 μM. Compounds were considered to have an interesting activity when they potentiated the choline signal at least with 200% when tested at a concentration of 30 μM (the efficacy of 100 μM choline was defined as 100% in the absence of a PAM). An EC50 (or pEC50) was determined as a concentration relating to half the maximal effect, when a clear sigmoidal curve with top plateau was obtained.
Background: A change in cytosolic calcium serves as a functional read-out for many receptors and channels.

Some results are limits rather than exact numbers.

Here are results for 52 compounds from patent US8779158B2, “Trisubstituted pyrazoles as acetylcholine receptor modulators” (Janssen Pharmaceutica NV, priority 2008, dated 2014).

T1 sequence (P36544 23-502): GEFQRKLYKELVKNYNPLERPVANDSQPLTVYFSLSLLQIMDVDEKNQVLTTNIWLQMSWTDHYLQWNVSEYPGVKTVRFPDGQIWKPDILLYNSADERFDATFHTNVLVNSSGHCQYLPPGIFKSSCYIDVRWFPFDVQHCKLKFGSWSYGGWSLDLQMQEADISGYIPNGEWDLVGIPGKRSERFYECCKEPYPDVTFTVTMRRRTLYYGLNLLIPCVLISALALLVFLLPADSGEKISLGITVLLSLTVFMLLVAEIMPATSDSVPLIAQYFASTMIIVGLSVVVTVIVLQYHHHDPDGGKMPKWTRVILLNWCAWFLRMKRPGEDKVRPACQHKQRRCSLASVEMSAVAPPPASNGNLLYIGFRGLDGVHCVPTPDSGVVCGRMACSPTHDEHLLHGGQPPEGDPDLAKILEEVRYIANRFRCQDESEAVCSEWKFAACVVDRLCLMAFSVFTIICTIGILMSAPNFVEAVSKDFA

For orientation: EC50 means the concentration that produces a half-maximal response. `CCNC(=O)Cn1nc(Nc2ccc(F)c(F)c2)cc1-c1cccnc1` [compound 16]: the concentration giving a half-maximal response (EC50) is more than 10000 nM.

With `CN(C)C(=O)CCn1nc(Nc2cccc(F)c2)cc1-c1ccc2c(c1)OCCO2` [compound 82], the EC50 is 135 nM.

On to `Cc1cc(-c2cc(Nc3ccc(F)c(F)c3)nn2CC(=O)NC2CC2)cc(C)n1` [compound 160], for which the EC50 was 525 nM and the Emax is 927%.

Consider `CNC(=O)Cn1nc(Nc2ccc(F)c(C(F)(F)F)c2)cc1-c1ccnc(C)c1` [compound 34], for which the EC50 is 3390 nM.

For `CC[C@H](O)Cn1nc(Nc2cc(OC)cc(C(F)(F)F)c2)cc1-c1cc(C)nc(C)c1` [compound 101], the EC50 is 151 nM.

Regarding `Cc1cc(-c2cc(Nc3ccc(F)c(F)c3F)nn2CC(=O)NC2CC2)ccn1` [compound 116], the EC50 is 1230 nM and the Emax worked out at 596%.

On to `Cc1cc(-c2cc(Nc3cccc(OC(F)(F)F)c3)nn2CC(=O)NC2CC2)cc(C)n1` [compound 147], for which the 50% effective concentration (EC50) was 603 nM and the Emax was 643%.

For `Cc1cc(-c2cc(Nc3ccc(F)c(C(F)(F)F)c3)nn2CC(=O)NC2CCC2)cc(C)n1` [compound 174], the concentration for a half-maximal effect (EC50) is 219 nM and the Emax amounted to 651%.

For the compound `CC[C@H](O)Cn1nc(Nc2cc(OC)cc(C(F)(F)F)c2)cc1-c1ccnc(C)c1Cl` [compound 115], the 50% effective concentration (EC50) is 1260 nM and the Emax was found to be 516%.

Take `Cc1cc(-c2cc(Nc3ccc(F)c(C(F)(F)F)c3)nn2C[C@H](C)O)cc(N(C)C)n1` [compound 69]: the EC50 is 794 nM and the Emax was determined as 400%.

`CCNC(=O)Cn1nc(Nc2cc(F)cc(Cl)c2)cc1-c1ccnc(C)c1` [compound 39]: the EC50 is 776 nM.

Consider `CNC(=O)Cn1nc(Nc2cc(F)c(F)c(F)c2)cc1-c1cccnc1` [compound 15], for which the EC50 was more than 10000 nM and the Emax at 30 µM stood at 832%.

As to `Cc1cc(-c2cc(Nc3cc(F)c(F)c(F)c3)nn2CC(=O)NC2CC2)cc(C)n1` [compound 172], the 50% effective concentration (EC50) was 186 nM and the Emax worked out at 393%.

With `Cc1cc(-c2cc(Nc3ccc(F)c(F)c3)nn2CC(=O)NC2CCC2)cc(C)n1` [compound 171], the 50% effective concentration (EC50) was 148 nM and the Emax was determined as 507%.

Take `CNC(=O)Cn1nc(Nc2cc(F)cc(C(F)(F)F)c2)cc1-c1ccncc1C` [compound 30]: the 50% effective concentration (EC50) was more than 10000 nM.

With `Cc1cc(-c2cc(Nc3cccc(OC(F)(F)F)c3)nn2CC(=O)NC2CCC2)cc(C)n1` [compound 180], the concentration giving a half-maximal response (EC50) is 372 nM and the Emax turned out to be 768%.

Regarding `CNC(=O)Cn1nc(Nc2ccc(F)c(C(F)(F)F)c2)cc1-c1cc(C)nc(C)c1` [compound 114], the EC50 was 1150 nM.

Turning to `Cc1cc(-c2cc(Nc3ccc(F)c(F)c3F)nn2CC(=O)NC2CC2)cc(C)n1` [compound 156], the concentration for a half-maximal effect (EC50) is 380 nM and the Emax was found to be 975%.

As to `CN(C)C(=O)CCn1nc(Nc2ccc3c(c2)OC(F)(F)O3)cc1-c1ccncc1` [compound 88], the EC50 was 309 nM.

Take `Cc1ccnc(-c2cc(Nc3cc(F)cc(F)c3)nn2CCC(=O)N(C)C)c1` [compound 26]: the concentration giving a half-maximal response (EC50) is 2750 nM and the Emax was found to be 800%.

Regarding `COc1cccc(-c2cc(Nc3ccc(F)c(F)c3)nn2CCC(=O)N(C)C)c1Cl` [compound 11], the concentration for a half-maximal effect (EC50) is 145 nM.

Take `Cc1cc(-c2cc(Nc3cccc(Cl)c3F)nn2CC(=O)NC2CCC2)cc(C)n1` [compound 175]: the EC50 is 126 nM and the Emax amounted to 462%.

Take `CCNC(=O)Cn1nc(Nc2cccc(C(F)(F)F)c2)cc1-c1ccc2c(c1)OCCO2` [compound 79]: the half-maximal effective concentration (EC50) was 219 nM.

Consider `CNC(=O)Cn1nc(Nc2cccc(Cl)c2F)cc1-c1cc(C)nc(C)c1` [compound 141], for which the EC50 is 562 nM and the Emax was found to be 519%.

As to `CC[C@H](O)Cn1nc(Nc2ccc(F)c(C(F)(F)F)c2)cc1-c1ccc(C)nc1` [compound 29], the 50% effective concentration (EC50) was 1120 nM and the Emax is 500%.

Consider `Cc1cc(-c2cc(Nc3cccc(C(F)(F)F)c3)nn2CCC(=O)N(C)C)cc(C)n1` [compound 178], for which the EC50 is 550 nM and the Emax was determined as 627%.

Take `CCNC(=O)Cn1nc(Nc2cccc(OC(F)(F)F)c2)cc1-c1ccc2c(c1)OCCO2` [compound 80]: the concentration giving a half-maximal response (EC50) is 204 nM.

Consider `CNC(=O)Cn1nc(Nc2cc(OC)cc(C(F)(F)F)c2)cc1-c1ccnc(C)c1C` [compound 50], for which the EC50 was 6170 nM and the Emax is 496%.

`Cc1cc(-c2cc(Nc3ccc(F)c(C(F)(F)F)c3)nn2CC(=O)NC2CC2)cc(C)n1` [compound 159]: the EC50 was 457 nM and the Emax worked out at 842%.

As for `CNC(=O)Cn1nc(Nc2cccc(C(F)(F)F)c2)cc1-c1cccnc1` [compound 13], the concentration giving a half-maximal response (EC50) is more than 10000 nM and the Emax at 30 µM is 967%.

For the compound `CNC(=O)Cn1nc(Nc2cc(OC)cc(C(F)(F)F)c2)cc1-c1cc(C)nc(C)c1` [compound 105], the EC50 was 3160 nM.

Regarding `Cc1ccnc(-c2cc(Nc3ccc(F)c(C(F)(F)F)c3)nn2C[C@H](C)O)c1` [compound 25], the concentration for a half-maximal effect (EC50) was 933 nM and the Emax was determined as 500%.

Consider `CNC(=O)Cn1nc(Nc2cc(F)c(F)c(F)c2)cc1-c1ccnc(C)c1` [compound 109], for which the EC50 was 1780 nM and the Emax amounted to 559%.

Consider `CCNc1cc(-c2cc(Nc3ccc(F)c(C(F)(F)F)c3)nn2C[C@H](C)O)cc(C)n1` [compound 67], for which the 50% effective concentration (EC50) is 1380 nM and the Emax was 800%.

For `Cc1cc(-c2cc(Nc3ccc(F)c(F)c3F)nn2CC(=O)NC2CCC2)cc(C)n1` [compound 182], the EC50 is 182 nM.

With `CNC(=O)Cn1nc(Nc2cccc(C(F)(F)F)c2)cc1-c1cc(C)nc(C)c1` [compound 117], the EC50 is 1480 nM and the Emax came to 835%.

As for `Cc1cc(-c2cc(Nc3ccc(F)c(C(F)(F)F)c3)nn2CCC(=O)N(C)C)cc(C)n1` [compound 161], the EC50 is 240 nM and the Emax is 737%.

Consider `Cc1cc(-c2cc(Nc3cc(F)c(F)c(F)c3)nn2CC(=O)NC2CCC2)cc(C)n1` [compound 179], for which the EC50 was 115 nM and the Emax came to 793%.

For `Cc1cc(-c2cc(Nc3cccc(Cl)c3F)nn2CC(=O)NC2CC2)cc(C)n1` [compound 169], the EC50 was 302 nM and the Emax stood at 577%.

`CNC(=O)Cn1nc(Nc2cccc(OC(F)(F)F)c2)cc1-c1cc(C)nc(C)c1` [compound 129]: the concentration giving a half-maximal response (EC50) is 933 nM and the Emax stood at 726%.

For the compound `CNC(=O)Cn1nc(Nc2cc(F)cc(Cl)c2)cc1-c1ccnc(C)c1` [compound 33], the half-maximal effective concentration (EC50) is 1780 nM.

For the compound `Cc1cc(-c2cc(Nc3ccc(F)c(F)c3)nn2CCC(=O)N(C)C)cc(Cl)n1` [compound 60], the EC50 was 501 nM.

As to `CCNC(=O)Cn1nc(Nc2cccc(OC(F)(F)F)c2)cc1-c1cccnc1` [compound 17], the half-maximal effective concentration (EC50) was more than 10000 nM.

Consider `COc1cc(Nc2cc(-c3cc(C)nc(C)c3)n(CC(=O)NC3CCC3)n2)cc(C(F)(F)F)c1` [compound 162], for which the EC50 is 437 nM and the Emax is 750%.

Turning to `CNC(=O)Cn1nc(Nc2ccc3c(c2)OC(F)(F)O3)cc1-c1ccncc1C` [compound 89], the 50% effective concentration (EC50) is more than 10000 nM.

In the case of `CN(C)C(=O)CCn1nc(Nc2ccc(F)c(F)c2)cc1-c1ccc2c(c1)OCCO2` [compound 84], the EC50 is 51.3 nM.

As to `CCNC(=O)Cn1nc(Nc2cccc(OC(F)(F)F)c2)cc1-c1ccnc(C)c1` [compound 37], the concentration for a half-maximal effect (EC50) was 1000 nM.

For the compound `CNC(=O)Cn1nc(Nc2cccc(OC(F)(F)F)c2)cc1-c1cccnc1` [compound 14], the EC50 was 5130 nM.

With `Cc1cc(-c2cc(Nc3ccc(F)c(C(F)(F)F)c3)nn2CC[C@H](C)O)ccn1` [compound 49], the EC50 is 1820 nM and the Emax was 500%.

On to `Cc1ccnc(-c2cc(Nc3ccc(F)c(F)c3)nn2C[C@H](C)O)c1` [compound 24], for which the EC50 was 2140 nM and the Emax is 300%.

Regarding `Cc1cc(-c2cc(Nc3cc(F)c(F)c(F)c3)nn2C[C@H](C)O)ccn1` [compound 44], the EC50 is 1230 nM and the Emax was 400%.

As to `CCNc1cc(-c2cc(Nc3cc(F)cc(C(F)(F)F)c3)nn2C[C@H](C)O)ccn1` [compound 64], the EC50 was 1410 nM and the Emax was determined as 500%.
